Target: T1, PI3Kδ (recombinant GST-tagged PIK3CD co-expressed with PIK3R1, p85α) (Homo sapiens, UniProt O00329)
T1 construct: The protein is full length and co-expressed with untagged PIK3R1; GST; purchased Invitrogen PV5274
Test: PI3Kδ inhibition, modified PIK3CD Adapta TR-FRET kinase assay
Assay type: biochemical
Settings: 2 μM ATP, 50 μM PIP2, 1 hour at room temperature, pIC50 = -log(IC50 in M)
Method: The activity of compounds as PI3Kδ inhibitors may be determined by a variety of methods, including in vitro and in vivo methods. The following in vitro assay measures a test compound's ability to inhibit PI3Kδ-mediated phosphorylation of PIP2 and ATP.
Recombinant GST-tagged PIK3CD is purchased from Invitrogen (Part Number: PV5274). The protein is full length and co-expressed with untagged PIK3R1, phosphoinositide-3-kinase regulatory subunit 1 (p85α). The protein is stored at −20° C. in 50 mM TRIS (pH 7.5), 150 mM NaCl, 0.5 mM EDTA, 0.02% Triton® X-100, 2 mM DTT, and 50% glycerol.
A modified PIK3CD Adapta® assay (Invitrogen, Carlsbad, Calif.) is used to measure PI3Kδ inhibition of the example compounds. The assay has two phases. In the first phase, kinase reaction components, which include the enzyme (PIK3CD), substrates (PIP2, ATP), test compound (inhibitor), and assay buffer are added to each well, and the reaction is allowed to incubate for a pre-determined period of time. After reaction, a detection solution composed of a Eu (europium)-labeled anti-ADP antibody, Alexa Fluor® 647-labeled ADP tracer, and EDTA (to stop the kinase reaction) is added to each assay well. In this second phase, ADP formed by the kinase reaction displaces the Alexa Fluor® 647-labeled ADP tracer from the antibody, resulting in a decrease in time-resolved fluorescence resonance energy transfer (TR-FRET) signal. In the presence of the inhibitor, the amount of ADP formed by the kinase reaction is reduced, and the resulting intact antibody-tracer interaction maintains a high TR-FRET signal.
The assay uses black Greiner® 384-well plates (784076). The reaction buffer contains 50 mM Hepes (pH 7.5), 3 mM MgCl2, 1 mM EGTA, 100 mM NaCl, 0.03% CHAPS; 2 mM DTT is added fresh prior to each experiment. Enzyme (4 μL, estimated 1.5 nM in buffer) is first added to the wells of the plate. Next, test compounds (2 μL) from a source plate (5% dilution plate) are introduced into the wells. The final DMSO concentration in each assay well is 1%. The dilution plate contains 5% DMSO in the bottom half of columns 23 and 24, which serve as negative (non-inhibited) controls; the top half contains a known inhibitor concentration (positive control) that gives >98% inhibition of the kinase reaction. Other wells contain test compounds serially diluted across the plate 11 times for a total of 12 data points. The kinase reactions are carried out at room temperature and are initiated by the addition of 4 μL of solution containing 2 μM ATP and 50 μM PIP2. Each reaction is stopped after 1 hour±10 minutes via addition of 10 μL stop solution, which contains a final assay concentration of 3 nM Alexa Fluor® 647-labeled ADP tracer, 2 nM Eu-anti-ADP Antibody, and 10 mM EDTA. After allowing the solutions to equilibrate for 30±10 minutes, a PHERAstar plate reader is used to excite the Eu donor (at 337 nm) and to detect emission from the Alexa Fluor® 647 at 665 nm. This emission signal is referenced or “ratioed” to the emission from Eu at 620 nm. The emission ratio (665 nm/620 nm) from each well is collected and converted to percent conversion using a standard curve for the assay conditions: % conversion=B*(C+A−emission ratio)/(emission ratio−C), where “A” and “C” are the maximum and minimum values of the emission ratio obtained from the standard curve of emission ratio vs. % conversion (ATP-ADP); “B” is the emission ratio corresponding to the % conversion at the EC50 value for the ADP Tracer—Eu anti-ADP antibody complex. The percent inhibition for a given inhibitor concentration is computed from % conversion for the reaction and for the positive and negative controls. Corresponding IC50 values are calculated by non-linear curve fitting of the compound concentrations and values of percent inhibition to the standard IC50 equation and are reported as pIC50, i.e., −log(IC50), where IC50 is molar concentration at 50% inhibition.

T1 sequence (O00329 whole entry): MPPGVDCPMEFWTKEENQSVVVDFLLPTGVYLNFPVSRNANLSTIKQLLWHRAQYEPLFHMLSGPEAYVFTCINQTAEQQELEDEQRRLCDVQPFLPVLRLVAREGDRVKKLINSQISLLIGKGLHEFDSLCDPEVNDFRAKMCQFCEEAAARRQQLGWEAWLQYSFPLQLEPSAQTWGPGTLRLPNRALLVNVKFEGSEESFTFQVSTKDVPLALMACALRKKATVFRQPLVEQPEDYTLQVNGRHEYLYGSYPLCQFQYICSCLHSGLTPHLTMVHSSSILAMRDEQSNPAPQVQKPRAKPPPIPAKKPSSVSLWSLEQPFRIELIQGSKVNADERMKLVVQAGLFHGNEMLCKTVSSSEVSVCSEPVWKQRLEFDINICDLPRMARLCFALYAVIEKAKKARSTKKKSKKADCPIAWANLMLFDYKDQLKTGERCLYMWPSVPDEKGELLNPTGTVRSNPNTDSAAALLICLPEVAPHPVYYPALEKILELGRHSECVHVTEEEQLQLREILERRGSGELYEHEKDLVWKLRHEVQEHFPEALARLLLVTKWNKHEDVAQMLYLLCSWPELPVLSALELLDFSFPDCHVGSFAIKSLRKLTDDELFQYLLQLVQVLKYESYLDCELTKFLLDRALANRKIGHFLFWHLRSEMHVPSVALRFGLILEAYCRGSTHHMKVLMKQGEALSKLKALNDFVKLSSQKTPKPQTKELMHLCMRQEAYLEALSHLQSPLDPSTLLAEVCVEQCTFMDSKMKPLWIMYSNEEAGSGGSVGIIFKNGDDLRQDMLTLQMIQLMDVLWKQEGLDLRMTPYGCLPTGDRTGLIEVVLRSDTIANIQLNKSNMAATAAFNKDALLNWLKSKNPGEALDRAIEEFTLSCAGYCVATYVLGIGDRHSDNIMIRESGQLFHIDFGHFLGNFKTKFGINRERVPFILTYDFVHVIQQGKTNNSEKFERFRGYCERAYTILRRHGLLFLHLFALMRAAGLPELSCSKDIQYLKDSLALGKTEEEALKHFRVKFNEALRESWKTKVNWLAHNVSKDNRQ
T1 sequence (P27986 whole entry partner): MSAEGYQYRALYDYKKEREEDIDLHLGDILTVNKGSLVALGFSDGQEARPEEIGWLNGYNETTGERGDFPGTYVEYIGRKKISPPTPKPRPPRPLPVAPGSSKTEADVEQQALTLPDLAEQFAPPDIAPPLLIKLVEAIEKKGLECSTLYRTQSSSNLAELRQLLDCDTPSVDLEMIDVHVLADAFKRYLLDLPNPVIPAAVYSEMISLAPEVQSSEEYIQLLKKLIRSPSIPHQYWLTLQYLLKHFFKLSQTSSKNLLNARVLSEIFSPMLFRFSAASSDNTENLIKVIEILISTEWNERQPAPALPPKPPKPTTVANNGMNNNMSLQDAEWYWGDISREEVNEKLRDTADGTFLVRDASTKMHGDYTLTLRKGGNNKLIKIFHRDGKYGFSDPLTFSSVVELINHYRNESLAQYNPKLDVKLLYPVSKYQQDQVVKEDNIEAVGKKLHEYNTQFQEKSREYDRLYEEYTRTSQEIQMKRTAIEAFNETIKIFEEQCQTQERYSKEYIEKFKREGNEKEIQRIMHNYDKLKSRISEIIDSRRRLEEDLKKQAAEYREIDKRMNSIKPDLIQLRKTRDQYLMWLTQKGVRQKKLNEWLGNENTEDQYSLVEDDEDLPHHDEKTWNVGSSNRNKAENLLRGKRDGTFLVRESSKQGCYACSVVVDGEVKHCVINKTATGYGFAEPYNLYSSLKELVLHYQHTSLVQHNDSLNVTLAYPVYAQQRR

Row | SMILES | IC50
1 | C[C@H](Nc1nc(N)ncc1Cl)c1nc2ccn(C)c2cc1-c1ccnn1C [Example 1, (S)-5-Chloro-N^4-(1-(1-methyl-6-(1-methyl-1H-pyrazol-5-yl)-1H-pyrrolo[3,2-b]pyridin-5-yl)ethyl)pyrimidine-2,4-diamine] | 126 nM
2 | Cc1nc(N)nc(N[C@@H](C)c2nc3ccn(C)c3cc2-c2ccnn2C)c1C#N [Example 3, (S)-2-Amino-4-methyl-6-((1-(1-methyl-6-(1-methyl-1H-pyrazol-5-yl)-1H-pyrrolo[3,2-b]pyridin-5-yl)ethyl)amino)pyrimidine-5-carbonitrile] | 1.58 nM
3 | Cc1nc(N)c(C#N)c(NC(C)c2nc3ccn(C)c3cc2N2CCOCC2)n1 (stereo not drawn) [Example 6, 4-Amino-2-methyl-6-((1-(1-methyl-6-morpholino-1H-pyrrolo[3,2-b]pyridin-5-yl)ethyl)amino)pyrimidine-5-carbonitrile] | 63.1 nM
4 | C[C@H](Nc1nc(O)nc(N)c1C#N)c1nc2ccn(C)c2cc1N1CCOCC1 [Example 8, (S)-4-Amino-2-hydroxy-6-((1-(1-methyl-6-morpholino-1H-pyrrolo[3,2-b]pyridin-5-yl)ethyl)amino)pyrimidine-5-carbonitrile] | 1000 nM
5 | C[C@H](Nc1nc(N)nc(N)c1C#N)c1nc2ccn(C)c2cc1N1CCOCC1 [Example 10, (S)-2,4-Diamino-6-((1-(1-methyl-6-morpholino-1H-pyrrolo[3,2-b]pyridin-5-yl)ethyl)amino)pyrimidine-5-carbonitrile] | < 2.51 nM
6 | C[C@H](Nc1nc(O)nc(N)c1C#N)c1nc2ccn(C)c2cc1-c1ccnn1C [Example 11, (S)-4-Amino-2-hydroxy-6-((1-(1-methyl-6-(1-methyl-1H-pyrazol-5-yl)-1H-pyrrolo[3,2-b]pyridin-5-yl)ethyl)amino)pyrimidine-5-carbonitrile] | 1260 nM
7 | Cc1n[nH]c(C)c1-c1cc2c(ccn2C)nc1[C@H](C)Nc1nc(N)nc(N)c1C#N [Example 14, 2,4-Diamino-6-(((1S)-1-(6-(3,5-dimethyl-1H-pyrazol-4-yl)-1-methyl-1H-pyrrolo[3,2-b]pyridin-5-yl)ethyl)amino)pyrimidine-5-carbonitrile] | 7.94 nM
8 | C[C@H](Nc1nc(N)nc(N)c1C#N)c1nc2ccn(C)c2cc1-c1cscn1 [Example 17, (S)-2,4-Diamino-6-((1-(1-methyl-6-(thiazol-4-yl)-1H-pyrrolo[3,2-b]pyridin-5-yl)ethyl)amino)pyrimidine-5-carbonitrile] | < 1 nM
9 | C[C@H](Nc1nc(N)nc2[nH]ncc12)c1nc2ccn(C)c2cc1-c1ccnn1C [Example 18, (S)—N^4-(1-(1-Methyl-6-(1-methyl-1H-pyrazol-5-yl)-1H-pyrrolo[3,2-b]pyridin-5-yl)ethyl)-1H-pyrazolo[3,4-d]pyrimidine-4,6-diamine] | 501 nM
10 | Cc1n[nH]cc1-c1cc2c(ccn2C)nc1[C@H](C)Nc1nc(N)nc(C)c1C#N [Example 19, (S)-2-Amino-4-methyl-6-((1-(1-methyl-6-(3-methyl-1H-pyrazol-4-yl)-1H-pyrrolo[3,2-b]pyridin-5-yl)ethyl)amino)pyrimidine-5-carbonitrile] | 5.01 nM
11 | C[C@H](Nc1nc(N)nc(N)c1C#N)c1nc2ccn(C)c2cc1N1CCC(C)(O)CC1 [Example 21, (S)-2,4-Diamino-6-((1-(6-(4-hydroxy-4-methylpiperidin-1-yl)-1-methyl-1H-pyrrolo[3,2-b]pyridin-5-yl)ethyl)amino)pyrimidine-5-carbonitrile] | 5.01 nM
12 | C[C@@H](Nc1nc(N)nc(N)c1C#N)c1nc2ccn(C)c2cc1N1CCC(C)(O)CC1 [Example 22, (R)-2,4-Diamino-6-((1-(6-(4-hydroxy-4-methylpiperidin-1-yl)-1-methyl-1H-pyrrolo[3,2-b]pyridin-5-yl)ethyl)amino)pyrimidine-5-carbonitrile] | 2000 nM
13 | Cc1nc(N)nc(N[C@@H](C)c2nc3ccn(C)c3cc2-c2ccnc(O)c2)c1C#N [Example 23, (S)-2-Amino-4-((1-(6-(2-hydroxypyridin-4-yl)-1-methyl-1H-pyrrolo[3,2-b]pyridin-5-yl)ethyl)amino)-6-methylpyrimidine-5-carbonitrile] | < 1 nM
14 | Cc1nc(N)nc(N[C@@H](C)c2nc3ccn(C)c3cc2-c2ccccn2)c1C#N [Example 24, (S)-2-Amino-4-methyl-6-((1-(1-methyl-6-(pyridin-2-yl)-1H-pyrrolo[3,2-b]pyridin-5-yl)ethyl)amino)pyrimidine-5-carbonitrile] | < 1 nM
15 | Cc1nc(N)nc(N[C@@H](C)c2nc3ccn(C)c3cc2C2CCOCC2)c1C#N [Example 25, (S)-2-Amino-4-methyl-6-((1-(1-methyl-6-(tetrahydro-2H-pyran-4-yl)-1H-pyrrolo[3,2-b]pyridin-5-yl)ethyl)amino)pyrimidine-5-carbonitrile] | < 1.26 nM

More lines, now with the values ahead:

Row | IC50 | SMILES
16 | 2.51 nM | C[C@H](Nc1nc(N)nc(N)c1C#N)c1nc2ccn(C)c2cc1-c1ccnn1C [Example 2, (S)-2,4-Diamino-6-((1-(1-methyl-6-(1-methyl-1H-pyrazol-5-yl)-1H-pyrrolo[3,2-b]pyridin-5-yl)ethyl)amino)pyrimidine-5-carbonitrile]
17 | 63.1 nM | C[C@H](Nc1nc(N)ncc1C#N)c1nc2ccn(C)c2cc1-c1ccnn1C [Example 4, (S)-2-Amino-4-((1-(1-methyl-6-(1-methyl-1H-pyrazol-5-yl)-1H-pyrrolo[3,2-b]pyridin-5-yl)ethyl)amino)pyrimidine-5-carbonitrile]
18 | 126 nM | C[C@H](Nc1nc(N)ncc1Cl)c1nc2ccn(C)c2cc1N1CCOCC1 [Example 5, (S)-5-Chloro-N^4-(1-(1-methyl-6-morpholino-1H-pyrrolo[3,2-b]pyridin-5-yl)ethyl)pyrimidine-2,4-diamine]
19 | 79400 nM | C[C@H](Nc1nc(N)ncc1F)c1nc2ccn(C)c2cc1-c1ccnn1C [Example 7, (S)-5-Fluoro-N^4-(1-(1-methyl-6-(1-methyl-1H-pyrazol-5-yl)-1H-pyrrolo[3,2-b]pyridin-5-yl)ethyl)pyrimidine-2,4-diamine]
20 | 0.794 nM | Cc1nc(N)nc(N[C@@H](C)c2nc3ccn(C)c3cc2N2CCOCC2)c1C#N [Example 9, (S)-2-Amino-4-methyl-6-((1-(1-methyl-6-morpholino-1H-pyrrolo[3,2-b]pyridin-5-yl)ethyl)amino)pyrimidine-5-carbonitrile]
21 | 1.58 nM | C[C@H](Nc1nc(N)nc(N)c1C#N)c1nc2ccn(C)c2cc1-c1ccccn1 [Example 12, (S)-2,4-Diamino-6-((1-(1-methyl-6-(pyridin-2-yl)-1H-pyrrolo[3,2-b]pyridin-5-yl)ethyl)amino)pyrimidine-5-carbonitrile]
22 | 2 nM | C[C@H](Nc1nc(N)nc(N)c1C#N)c1nc2ccn(C)c2cc1-c1ccn[nH]1 [Example 13, (S)-2,4-Diamino-6-((1-(1-methyl-6-(1H-pyrazol-5-yl)-1H-pyrrolo[3,2-b]pyridin-5-yl)ethyl)amino)pyrimidine-5-carbonitrile]
23 | < 1 nM | C[C@H](Nc1nc(N)nc(N)c1C#N)c1nc2ccn(C)c2cc1-c1ccnc(O)c1 [Example 15, (S)-2,4-Diamino-6-((1-(6-(2-hydroxypyridin-4-yl)-1-methyl-1H-pyrrolo[3,2-b]pyridin-5-yl)ethyl)amino)pyrimidine-5-carbonitrile]
24 | 7.94 nM | C[C@H](Nc1nc(N)nc2[nH]cnc12)c1nc2ccn(C)c2cc1-c1ccnn1C [Example 16, (S)—N^6-(1-(1-Methyl-6-(1-methyl-1H-pyrazol-5-yl)-1H-pyrrolo[3,2-b]pyridin-5-yl)ethyl)-9H-purine-2,6-diamine]

From patent publication US8835420B2, “Azaindole derivatives” (Takeda Pharmaceutical Company Limited, priority 2012, dated 2014)
